Experimental findings from paper PMC9180621, “Preparation of Novel Pyrazolo[4,3-e]tetrazolo[1,5-b][1,2,4]triazine Sulfonamides and Their Experimental and Computational Biological Studies” (International Journal of Molecular Sciences, 2022) are described below.

In experiment [1] the test system is BxPC-3 cells. The experiment is described as follows: Annexin V-FITC/propidium iodide flow cytometry, apoptosis. The format is cell-based, human. The conditions noted are these: IC50 concentration, Annexin V-FITC, ± SD. The protocol: Data are presented as mean percentage of apoptotic cells (early and late apoptotic) ± SD values. The differences between the experimental samples and vehicle control were evaluated by the ANOVA test followed by Tukey’s test (p < 0.05). Experiments were performed in triplicate. For flow cytometry analysis with Annexin V-FITC staining, the approximate number of analyzed cells was (N = 1 × 10^4), contrasting with the dual acridine orange/ethidium bromide (AO/EB) fluorescent staining (N = 200).
The Annexin V-FITC Apoptosis Detection Kit was used to estimate the apoptosis induction following 24 and 48 h incubation with the tested MM-compounds. During apoptosis, phosphatidylserine is transformed from the inner cell membrane to the cell surface, which can be detected by the annexin-FITC complex. The addition of propidium iodide to the reaction mixture allows the assessment of cell membrane integrity. Using flow cytometry analysis, four subpopulations of cells can be distinguished: alive (non-stained), necrotic (propidium iodide stained), early apoptotic (annexin V stained cells), or late-apoptotic cells (propidium iodide and annexin V stained). BxPC-3 and PC-3 cells were seeded at appropriate density on a 6-well plate (Table 9).
The experimental design included vehicle control (final solvent concentration was < 0.5% v/v DMSO), and cells treated with 2 µM SN-38 (active metabolite of irinotecan) used as a positive compensation control. Cells were left for incubation for another 24 or 48 h (37 °C; 5% CO2). After exposure, cells were trypsinized and transferred to cytometric tubes, left for 40 min, and centrifuged at 1400 rpm for 10 min at 4 °C. Afterward, the supernatant was removed, and the precipitate was diluted in 1 mL of PBS. The rest of the procedure was performed according to the manufacturer’s instructions. The results were obtained from three independent experiments.

The test system of experiment [2] is PC-3 cells. The experiment is described as follows: Dual acridine orange/ethidium bromide (AO/EB) fluorescent staining, apoptosis. Particulars: PC-3, 48 h incubation, 2xIC50 concentration, AO/EB, ± SD; control 1.5 ± 0.7%. The format is cell-based, human. How it is done:
(§1) Data are presented as mean percentage of apoptotic cells (early and late apoptotic) ± SD values. The differences between the experimental samples and vehicle control were evaluated by the ANOVA test followed by Tukey’s test (p < 0.05). Experiments were performed in triplicate. For flow cytometry analysis with Annexin V-FITC staining, the approximate number of analyzed cells was (N = 1 × 10^4), contrasting with the dual acridine orange/ethidium bromide (AO/EB) fluorescent staining (N = 200). Acridine orange/ethidium bromide (AO/EB) staining is used to detect nuclear alterations and the development of apoptotic bodies, which are both indicative of apoptosis. Acridine orange penetrates into living cells, emitting green fluorescence after intercalation into DNA. The second dye, ethidium bromide, emits red fluorescence in cells with an altered cell membrane. The cells are divided into three categories as follows: living cells (green nucleus with red orange cytoplasm); apoptotic (green irregularly nuclei with chromatin condensation or fragmentation); and necrotic cells (uniformly orange-stained cell nuclei). Programmed cell death is measured by counting the number of cells that undergo apoptosis under a fluorescent microscope. BxPC-3 and PC-3 cells were seeded at an appropriate density on 12-well plates (Table 9). […] Following the incubation period, cells were incubated with fluorochromes (AO/EB: 100 µM; 1:1, v/v) for 5 min at 37 °C in the dark. Viable, apoptotic, or necrotic cells were distinguished using this method based on differential uptake of fluorescent DNA-binding dyes (AO/EB) with the structural aspect of chromatin condensation in the stained nucleus. Cells were analyzed using a fluorescence microscope (Olympus BX60 F5 Olympus Optical Co., Ltd., Nagano, Japan) at 360 nm. The results were obtained from three independent experiments.

Experiment [3] concerns BxPC-3 cells. Described as above. Particulars: BxPC-3, IC50 concentration, 24 h incubation. The format is cell-based, human. The protocol: as §1
Another experiment concerns L929 cells. The experiment is described as follows: MTT assay, cell viability. The class given is cell-based. The conditions noted are these: L929 normal mouse fibroblasts, 72 h incubation, ± SD. The protocol: (§2) A statistical program (Graphpad Prism 7) was used to analyze obtained data (MTT test). The dose–response analysis was performed to estimate the inhibitory concentration (IC50) of the tested compounds. The IC50 value is defined as a concentration of the tested compound that leads to a reduction in cell pool viability by 50% compared to the negative control (accepted as 100%). % cell viability=Absorbance value of treated cells−Absorbance value of blank/Absorbance value of untreated cells−Absorbance value of blank×100%
(§3) To estimate cell viability following 72 h incubation with the tested MM-compounds (MM134, MM136, MM137, and MM139), the MTT test was used according to the PN-EN ISO 10993-5. It is a quantitative method based on the tetrazolium yellow dye MTT [3(4,5-dimethyl-2-thiazolyl)-2,5-diphenyl-2H-tetrazolium bromide], which is converted by living cells to a purple product, formazan, the concentration of which was measured colorimetrically. The MTT assay was performed according to the procedure described by Mosmann with modifications. At a density of approximately 8 × 10^3 cells per 100 µL/well, 96-well plates were seeded. Following the given incubation period in controlled conditions (37 °C; 5% CO2), cells were exposed to different concentrations of tested compounds in DMSO (range 0.05–3 µM) in a volume of 100 µL medium per well. Final solvent concentration of DMSO was < 0.5% v/v. The experimental design included vehicle controls and blanks (wells without cells).
(§4) After 72 h of incubation of cells with tested MM-compounds, 20 µL of MTT tetrazolium salt (5 mg/mL in PBS) was added to each well, and plates were incubated once again in a humidified atmosphere for 3 h (37 °C; 5% CO2). Following the incubation time, the solutions were removed and 100 µL of DMSO was added to dissolve the formazan complexes. Subsequently, a spectrophotometer (microplate reader Power Wave XS BioTek Instruments, Inc., Winooski, VT, USA) reading was performed at 570 nm. The experiments were performed in duplicates.
(In general: Formazan colour is commonly taken as a measure of viable cells.)

For experiment [4], the system named is BxPC-3 cells. The experiment is described as follows: MTT assay, cell viability. The format is cell-based. The conditions noted are these: Homo sapiens, BxPC-3, 72 h incubation, ± SD. The protocol: as §2, §3, §4
Another experiment relates to WI-38 cells. The experiment is described as follows: MTT assay, cell viability. The format is cell-based. Particulars: WI-38 normal human fibroblasts, 72 h incubation, ± SD. The protocol:
as §2, §3, §4

Another experiment concerns HCT-116 cells. Kind of experiment: MTT assay, cell viability. The format is cell-based. The conditions noted are these: Homo sapiens, HCT-116, 72 h incubation, ± SD. How it is done: as §2, §3, §4
The test system of experiment [5] is PC-3 cells. The experiment is described as follows: MTT assay, cell viability. The format is cell-based, human. The conditions noted are these: Homo sapiens; PC-3, 72 h incubation, MTT, ± SD. The protocol: as §2, §3, §4
Experiment [6] concerns PC-3 cells. Kind of experiment: MitoTracker Red, mitochondria membrane potential. The class given is cell-based, human. The protocol:
(§5) The fitness of the mitochondria and changes in MMP were assessed using MitoTracker Red. Data for experimental groups were presented as mean percentage of control group fluorescence intensity ± SD value (Figure 11, Table 2). Mitotracker Red is deposited in the mitochondrial matrix in response to changes in the inner transmembrane potential of the mitochondria. The intensity of fluorescence reflects the fitness of the mitochondria and alters with changes in MMP [91]. BxPC-3 and PC-3 cells were seeded at appropriate density on a 96-well plates (Table 9). […] After appropriate incubation time, cells were incubated with MitoTracker Red (0.1 µM/200 µL PBS/well) for 40 min. Afterward, MitoTracker Red solution was removed from the wells and PBS (200 µL/well) was added. Fluorescence was read at an […] of 581/644 nm using the SpectraMax® i3x Multi-Mode Detection Platform.

For experiment [7], the system named is BxPC-3 cells. Kind of experiment: MitoTracker Red, mitochondria membrane potential. The format is cell-based, human. How it is done:
as §5

SMILES strings stand for the structures.

For the compound `Cc1nn(-c2ccc(S(=O)(=O)N3CCOCC3)cc2)c2nn3nnnc3nc12` [MM136], the “mean percentage of apoptotic cells (early and late apoptotic)” value with BxPC-3 cells [1] (BxPC-3, 24 h incubation, control 10.3 ± 2.09%) is reported as 41.7 ± 0.17%; in the experiment on BxPC-3 cells [1] (BxPC-3, 48 h incubation, control 8.3 ± 1.13%), 56.33 ± 4.96%. Besides, the “mean % of apoptotic cells” value with PC-3 cells [2] is 14.5 ± 0.7%. Moreover, in the experiment on BxPC-3 cells [3], the “increase in apoptotic fraction” value is given as “did not induce a significant increase”. Besides, the IC50 is 220 ± 80 nM in the experiment with L929 cells; 250 ± 80 nM with BxPC-3 cells [4]; 480 ± 90 nM in the experiment on WI-38 cells; 250 ± 70 nM with HCT-116 cells; 130 ± 10 nM with PC-3 cells [5]. Also, the “mean percentage of control group fluorescence intensity (MMP)” value in the experiment with PC-3 cells [6] (PC-3, 24 h incubation, 0.5IC50, ± SD) came to 96.3 ± 5.74%; in the experiment on PC-3 cells [6] (PC-3, 24 h incubation, 2xIC50, ± SD) it was 86.9 ± 7.22%; in the experiment with PC-3 cells [6] (PC-3, 24 h incubation, IC50, ± SD), 92.78 ± 0.9%; in the experiment with PC-3 cells [6] (PC-3, 48 h incubation, 0.5IC50, ± SD), 81.34 ± 0.4%; in the experiment with PC-3 cells [6] (PC-3, 48 h incubation, 2xIC50, ± SD), 47.38 ± 2.74%; in the experiment with PC-3 cells [6] (PC-3, 48 h incubation, IC50, ± SD) it was 61.24 ± 3.62%. Moreover, the “mean percentage of control group fluorescence intensity (MMP)” value in the experiment on BxPC-3 cells [7] (BxPC-3, 24 h incubation, 0.5IC50, ± SD) is 82.83 ± 13.02%; in the experiment on BxPC-3 cells [7] (BxPC-3, 24 h incubation, 2xIC50, ± SD) it was 57.67 ± 5.56%; with BxPC-3 cells [7] (BxPC-3, 24 h incubation, IC50, ± SD) it was 65.68 ± 4.58%; in the experiment with BxPC-3 cells [7] (BxPC-3, 48 h incubation, 0.5IC50, ± SD), 69.08 ± 4.40%; with BxPC-3 cells [7] (BxPC-3, 48 h incubation, 2xIC50, ± SD), 61.83 ± 0.46%; with BxPC-3 cells [7] (BxPC-3, 48 h incubation, IC50, ± SD), 62.37 ± 0.05%.

Usually IC50 stands for the point on the concentration scale where inhibition reaches its midpoint. A higher IC50 goes with lower potency.
